Reference: patent publication US20250281460A1, “PEGYLATED BILIRUBIN FOR THE TREATMENT OF […], OBESITY, FATTY LIVER DISEASE, CARDIOVASCULAR DISEASES AND TYPE II DIABETES” (The University of Toledo, priority 2019, published 2025)
Entries after “also recorded” stand apart in the source; their conditions may differ. Values belong to the compound of their own block, whether it stands above or below them.

How the values were obtained:
BAT cells [1] = experiment: Real-time PCR in differentiated BAT cells; assay type: cell-based, murine; conditions: 50 μM biliverdin, 50 μM WY14,463, 10 μM rosiglitazone, 24 hrs
Description: Total RNA was extracted from mouse tissues using the miRNeasy Mini Kit (Qiagen). Total RNA was read on a NanoDrop 2000 spectrophotometer (Thermo Fisher Scientific, Wilmington, DE) and cDNA was synthesized using High Capacity cDNA Reverse Transcription Kit (Applied Biosystems). PCR amplification of the cDNA was performed by quantitative real-time PCR using TrueAmp SYBR Green qPCR SuperMix (Advance Bioscience). The thermocycling protocol consisted of 3 min at 95° C., 48 cycles of 15 sec at 95° C., 30 sec at 60° C., and based on primer size 0 to 30 sec at 72° C. and finished with a melting curve ranging from 60-95° C. to allow distinction of specific products. Normalization was performed in separate reactions with primers to 36B4.

BAT cells [2] = experiment: SeaHorse analysis in murine BAT cell line (wild-type); assay type: cell-based
3T3-L1-WAT adipocytes = experiment: SeaHorse oxygen consumption rate in fully differentiated 3T3-L1-WAT adipocytes; assay type: cell-based, mouse; conditions: 50 μM biliverdin, 50 μM WY 14,463, 10 μM rosiglitazone
Description: To compare the effects of bilirubin on the activation of PPARα or PPARγ on mitochondrial function, a SeaHorse XFe96 Analyzer was used to measure oxygen consumption rate (OCR) in fully differentiated 3T3-L1-WAT adipocytes treated with 50 μM biliverdin, 50 μM WY 14,463 (PPARα agonist), or 10 μM rosiglitazone (PPARγ-agonist). […]. Rosiglitazone, but not biliverdin or WY 14,643, enhanced the coupling efficiency. None of the ligands affected non-mitochondrial respiration, basal respiration, or proton leak.
Cellular respiration was quantified using the Seahorse Extracellular Flux Analyzer XF-96 (Agilent Technologies, Cedar Creek, TX). The Seahorse XF Cell Mito Stress Test Kit (Agilent Technologies, Cat #103015-100) was used for analysis of cellular respiration. BAT or 3T3-L1 cells were seeded on a XF96 cell culture microplate (Agilent 101085-004) at 20,000 cells per well. Cells were then differentiated as previously described for 9 days. […] The oxygen consumption rate (OCR) and extracellular acidification rate (ECAR) were used to quantify the cellular energy phenotype of the cells. After treatment, cells were washed twice with Seahorse Bioscience Assay Media (XF Base media with 25 mM Glucose, 2 mM […], and 1 mM Sodium Pyruvate) then incubated with the buffer for 1 hour in a non-CO2 incubator. The Seahorse Cartridge ports were loaded with […] of assay media with […] FCCP, 10 μM Oligomycin, 5 μM Rotenone/Antimycin A in different ports an hour before assay. […] The raw data and graphs were supplied as an Excel File or Graphpad Prizm file.

[3] = system: BAT PPARα CRISPR KO cells; experiment: Seahorse analysis in BAT PPARα CRISPR KO cells; assay type: cell-based, mouse; conditions: both KO clones, 24 hours
From the text: To further delineate the actions of bilirubin on BAT, CRISPR technology was developed to knockout (KO) PPARα and establish two null clone lines. […]. The function of the ligands was lost in both clones for the BAT PPARα CRISPR KO cells.
CRISPR-Technology was employed in BAT as previously described to excise part of Exon 3 and Exon 4 of the PPARα gene to create a PPARα Knockout BAT cell line. Two sgRNAs with high efficacy and low off-target scores were identified on Exon 3 and 4 of the mouse PPARα gene using Benchling online software. The two Cas9 targets were separated by 9,465 bases. All of the off-targets to our PPARα sgRNA had 4 mismatches, of which at least 1-2 were within the seed region (up to 12 bases proximal to the protospacer adjacent motif (PAM) site) which reduces the likelihood of Cas9 off-target effects. The multiplex sgRNAs were generated using the PrecisionX Multiplex gRNA Cloning Kit according to manufacturer instructions. […] After 36 h of transfection, cells with the top 10% level of fluorescence were single-sorted into 96-well plates by fluorescent activated cell sorting. […]
Cellular respiration was quantified using the Seahorse Extracellular Flux Analyzer XF-96 (Agilent Technologies, Cedar Creek, TX). […] The oxygen consumption rate (OCR) and extracellular acidification rate (ECAR) were used to quantify the cellular energy phenotype of the cells. […]

human PPARα-LBD = target: T1, human PPARα-LBD (Homo sapiens, UniProt Q07869); experiment: MARCONI / PamStation nuclear hormone receptor coregulator assay; assay type: binding; conditions: 50 μM
T1 construct: purchased Invitrogen PV4692
T1 sequence (Q07869 239-466 limits assumed): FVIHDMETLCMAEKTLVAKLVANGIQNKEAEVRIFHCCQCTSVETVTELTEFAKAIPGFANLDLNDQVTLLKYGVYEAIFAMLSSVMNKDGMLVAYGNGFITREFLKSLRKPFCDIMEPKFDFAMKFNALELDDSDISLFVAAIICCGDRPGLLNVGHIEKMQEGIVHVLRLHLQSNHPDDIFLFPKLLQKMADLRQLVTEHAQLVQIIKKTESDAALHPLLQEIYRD
Description: The molecular determinants that dictate specificity and selectivity in PPARα-coregulator interactions are largely unknown. […] To determine if bilirubin binds to the ligand binding domain (LBD) of PPARα to cause recruitment of a specific set of co-regulator proteins, the Microarray Assay for Realtime Coregulator-Nuclear Receptor Interaction (MARCONI) technology was used.
Incubation was performed at 37° C. for 5 minutes in 1.5 ml microtubes prior to placement on respective array for analysis in a PamStation96 (Pamgene International). PPARα binding was reflected via fluorescent signals recorded through the Pamstation96. The signals were transformed into tiff images and binding capacity was quantified using BioNavigator software (Pamgene International).

Compound: Cc1cccc(Nc2cc(Cl)nc(SCC(=O)O)n2)c1C [WY 14,643, WY-14,643]
Adrb3 mRNA (BAT cells [1]): significant increase
Ucp1 mRNA (BAT cells [1]): significant increase
proton leak (BAT cells [2]; BAT cells): stimulated
ATP production (BAT cells [2]; WT BAT cells, 24 hours): increased; also recorded: stimulated
basal respiration (OCR) (BAT cells [2]; WT BAT cells, 24 hours): increased
maximum respiration (OCR) (BAT cells [2]; WT BAT cells, 24 hours): increased; also recorded: significantly higher
ATP production (3T3-L1-WAT adipocytes): not observed
mitochondrial OCR for maximum respiration (3T3-L1-WAT adipocytes): significantly increased
function of the ligands on mitochondrial function (OCR) [3]: lost

binding to the human PPARα-LBD (human PPARα-LBD): direct binding
binding of the human PPARα LBD to coregulator motifs (human PPARα-LBD; 154 coregulator motifs): mitigate binding
Compound: C=CC1=C(C)/C(=C/c2[nH]c(Cc3[nH]c(/C=C4\NC(=O)C(C)=C4C=C)c(C)c3CCC(=O)O)c(CCC(=O)O)c2C)NC1=O [bilirubin, Bilirubin]
coregulators with reduced interactions with the human PPARα LBD (human PPARα-LBD; subtracted from the vehicle): PRGR (LXXL 102-124), PRGC1 (LXXL 134-154), and PELP1 (LXXL 446-468)
highest interacting coregulators recruited to PPARα-LBD (human PPARα-LBD; subtracted from the vehicle): MAPE (LXXL 249-271), WIPII (LXXL 313-335), CNOT1 (LXXL 2083-2105), PELP1 (LXXL 571-593), and others
